According to patent publication US7825126B2 (The United States of America as represented by the …, priority 2004, dated 2010):
Where “and” joins values, the source holds several entries; their conditions need not be identical. Equal entries are not always repeated. Where two headings read alike, the source gives them in different places.

What was measured:
human A1 receptors [1] = target: T1, human A1 receptors (Homo sapiens, UniProt P30542)
T1 construct: expressed in transfected cells
T1 sequence (P30542 1-326): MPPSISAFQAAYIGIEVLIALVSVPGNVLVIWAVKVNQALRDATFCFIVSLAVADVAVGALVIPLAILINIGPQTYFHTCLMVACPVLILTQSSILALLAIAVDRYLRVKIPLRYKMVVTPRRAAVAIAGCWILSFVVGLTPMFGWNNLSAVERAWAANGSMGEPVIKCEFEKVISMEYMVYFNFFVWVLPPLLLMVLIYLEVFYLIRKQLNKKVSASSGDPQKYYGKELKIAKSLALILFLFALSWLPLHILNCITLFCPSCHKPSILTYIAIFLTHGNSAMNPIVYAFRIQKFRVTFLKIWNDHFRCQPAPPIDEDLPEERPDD

human A2A receptors [2] = target: T2, human A2A receptors (Homo sapiens, UniProt P29274); details: cited from earlier work; for Ki: read-out: Ki(hA2AAR), data from literature (footnotes c, d, f, g); for % displ. at 10 μM (hA2AAR): data from Ohno et al. (footnote c)
T2 construct: expressed in transfected cells

[3] = target: T3, rat A3 adenosine receptor (Rattus norvegicus, UniProt P28647); details: rat A3 AR; data from literature (footnotes c, d, f, i); unit nM printed in b194 only; read-out: Ki(rA3AR); cited from earlier work
T3 construct: expressed in transfected cells; host or cells: CHO cells
T3 sequence (P28647 1-320): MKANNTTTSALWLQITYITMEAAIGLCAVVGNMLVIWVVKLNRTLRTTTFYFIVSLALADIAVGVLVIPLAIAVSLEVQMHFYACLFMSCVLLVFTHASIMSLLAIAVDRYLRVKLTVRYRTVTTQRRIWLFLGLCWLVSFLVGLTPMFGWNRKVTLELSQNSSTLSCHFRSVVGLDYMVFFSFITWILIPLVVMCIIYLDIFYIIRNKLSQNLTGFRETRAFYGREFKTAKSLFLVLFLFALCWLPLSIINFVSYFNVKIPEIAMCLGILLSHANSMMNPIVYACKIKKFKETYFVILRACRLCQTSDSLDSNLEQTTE

[4] = target: T4, human A3 adenosine receptor (Homo sapiens, UniProt P0DMS8); set-up: expressed in transfected cells; host or cells: CHO cells; details: relative to 10 μM Cl-IB-MECA, data from literature (footnotes c, d, e, f); cited from earlier work
T4 sequence (P0DMS8 1-318): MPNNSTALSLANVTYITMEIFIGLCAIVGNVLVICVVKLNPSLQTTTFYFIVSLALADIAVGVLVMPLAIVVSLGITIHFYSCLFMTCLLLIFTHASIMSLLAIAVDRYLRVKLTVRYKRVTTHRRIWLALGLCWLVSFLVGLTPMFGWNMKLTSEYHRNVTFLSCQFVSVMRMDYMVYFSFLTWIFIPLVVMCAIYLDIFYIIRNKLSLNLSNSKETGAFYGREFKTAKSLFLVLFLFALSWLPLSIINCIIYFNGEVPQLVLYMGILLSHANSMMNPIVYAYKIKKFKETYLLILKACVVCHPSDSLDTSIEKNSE

[5] = target: T4, human A3 adenosine receptor; set-up: expressed in transfected cells; host or cells: CHO cells; details: data from literature (footnotes c, d, e, f); read-out: Ki(hA3AR); cited from earlier work
[6] = target: T5, human A2B adenosine receptor (hA2BAR) (Homo sapiens, UniProt P29275); assay: Activation of human A2B adenosine receptor at 10 μM; type: cell-based; details: CHO cells
T5 sequence (P29275 1-332): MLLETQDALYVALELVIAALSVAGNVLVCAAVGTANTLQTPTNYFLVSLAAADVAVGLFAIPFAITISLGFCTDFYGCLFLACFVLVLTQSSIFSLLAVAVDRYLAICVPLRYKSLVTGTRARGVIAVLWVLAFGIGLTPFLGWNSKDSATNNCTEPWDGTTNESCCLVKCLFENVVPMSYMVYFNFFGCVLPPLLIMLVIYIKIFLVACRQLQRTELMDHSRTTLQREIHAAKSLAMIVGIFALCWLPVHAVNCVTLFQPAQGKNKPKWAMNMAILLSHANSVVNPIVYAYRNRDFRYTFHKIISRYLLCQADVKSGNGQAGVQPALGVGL

human A1 receptors [7] = target: T1, human A1 receptors; assay: Binding at human A1 adenosine receptor ([3H]R-PIA, CHO cell membranes); details: mean ± s.e.m., n = 3-5, read-out: Ki(hA1AR)
Procedure: (§1) Binding assays at the A1 and A2A receptors. […] Reaction was terminated by filtration with GF/B filters.
(§2) Statistical analysis Binding and functional parameters were calculated using Prism 5.0 software (GraphPAD, San Diego, Calif., USA). IC50 values obtained from competition curves were converted to Ki values using the Cheng-Prusoff equation.

[8] = target: T4, human A3 adenosine receptor
Procedure: (§3) The cyclic AMP accumulation assay was performed as follows. Intracellular cyclic AMP levels were measured with a competitive protein binding method. […] After centrifugation and resuspension in medium, cells were plated in 24-well plates in 1.0 ml medium. […] The reaction was terminated by removing the supernatant, and cells were lysed upon the addition of 200 μL of 0.1 M ice-cold HCl. The cell lysate was resuspended and stored at −20° C. For determination of cyclic AMP production, protein kinase A (PKA) was incubated with [^3H]cyclic AMP (2 nM) in K2HPO4/EDTA buffer (K2HPO4, 150 mM; EDTA, 10 mM), 20 μL of the cell lysate, and 30 μL 0.1 M HCl or 50 μL of cyclic AMP solution (0-16 pmol/200 μL for standard curve). Bound radioactivity was separated by rapid filtration through Whatman GF/C filters and washed once with cold buffer. Bound radioactivity was measured by liquid scintillation spectrometry.
(§4) Forskolin (10 μM) was used to stimulate cyclic AMP levels.

human A2A receptors [9] = target: T2, human A2A receptors; assay: Binding at human A2A adenosine receptor ([3H]CGS21680, HEK-293 cell membranes); details: [3H]CGS 21680; mean ± s.e.m., n = 3-5; read-out: Ki(hA2AAR)
Procedure: as §1, §2

[10] = target: T3, rat A3 adenosine receptor; assay: Binding at rat A3 adenosine receptor ([125I]I-AB-MECA, CHO cell membranes); details: rat A3 AR in CHO cells; unit nM printed in b194 only; read-out: Ki(rA3AR)
Procedure: (§5) Striatal and forebrain tissues from Wistar rats were homogenized in ice-cold 50 mM Tris-HCl buffer, pH 7.4, using an electric homogenizer. The homogenate was centrifuged at 20,000 g for 10 min at 4° C., and the pellet was washed in fresh buffer. The final pellet was stored at −80° C. until the binding experiments. The protein concentration was measured using the Bradford assay. […] The mixtures were incubated at 37° C. for 60 min. […] Filters were washed three times with 9 ml ice-cold buffer. Radioactivity was determined in a Beckman 5500B γ-counter. Statistical analysis Binding and functional parameters were calculated using Prism 5.0 software (GraphPAD, San Diego, Calif., USA). IC50 values obtained from competition curves were converted to Ki values using the Cheng-Prusoff equation.

[11] = target: T4, human A3 adenosine receptor; assay: Binding at human A3 adenosine receptor ([125I]I-AB-MECA, CHO cell membranes); set-up: expressed in transfected cells; host or cells: CHO cells; details: for Ki: [125I]I-AB-MECA, mean ± s.e.m., n = 3-5, read-out: Ki(hA3AR)
Procedure: as §5

[12] = target: T4, human A3 adenosine receptor; assay: Cyclic AMP accumulation assay (inhibition of forskolin-stimulated cAMP), CHO cells expressing human A3 adenosine receptor
Procedure: as §3, §4

[13] = target: T5, human A2B adenosine receptor (hA2BAR); details: data from literature (footnotes c, f, h); cited from earlier work
rat A1 receptors = rat A1 receptors (Rattus norvegicus, UniProt P25099); assay: biochemical
Procedure: Striatal and forebrain tissues from Wistar rats were homogenized in ice-cold 50 mM Tris-HCl buffer, pH 7.4, using an electric homogenizer. The homogenate was centrifuged at 20,000 g for 10 min at 4° C., and the pellet was washed in fresh buffer. The final pellet was stored at −80° C. until the binding experiments. The protein concentration was measured using the Bradford assay.
as §1, §2

intact mouse heart = assay: Anti-ischemic cardioprotection, Langendorff-perfused mouse heart model of global ischemia/reperfusion; type: in vivo; details: 30 nM
Procedure: Anti-ischemic Cardioprotection. Langendorff perfusion of the mouse hearts was carried out. Mice were anesthetized with 60 mg/kg sodium pentobarbital (i.p.), and heart excised in ice-cold perfusion buffer. The aorta was cannulated and retrograde perfused in the Langendorff mode at a pressure of 55 mmHg. To assess isovolumic function, fluid-filled polyvinyl plastic film balloons were inserted into the left ventricle via the left atrium. Balloons were connected to a fluid-filled pressure transducer to measure the left ventricular developed pressure (LVDP), +dP/dt, −dP/dt, and heart rate. To induce normothermic global ischemia and reperfusion, retrograde perfusion of the aorta was stopped, and hearts were immersed in the same perfusion buffer in a water-jacketed bath maintained at 37° C. After 35-min ischemia and 30-min reperfusion, the recovery of left ventricular function was determined by quantifying the LVDP, +dP/dt, and −dP/dt. To quantify the infarct, the hearts were retrograde perfused with 1% triphenyltetrazolium chloride (TTC) in perfusion buffer for 10 minutes after 120-min reperfusion, which allowed washout of pyridine nucleotides from necrotic cells as required for TTC staining. The heart was then immersed in the same TTC buffer for another 10 minutes. The hearts were frozen, cut into six or seven 1 mm slices from apex to base, and scanned for measurement of infarct size by computer morphometry (Image-Pro Plus, version 5.0, Media Cybernetics, Inc, Silver Spring, Md.). The infarct size was quantified as the area of necrosis normalized to the total ventricular area.

[14] = target: T6, human A1 adenosine receptor (Homo sapiens, UniProt P30542); assay: Cyclic AMP accumulation assay (inhibition of forskolin-stimulated cAMP), CHO cells expressing human A1 adenosine receptor
T6 sequence (P30542 1-326): T1 sequence (P30542 1-326)
Procedure: as §3, §4

[15] = read-out: Ki(hA1AR); data from literature (footnotes c, d, f, g); cited from earlier work
[16] = n = 6, 35 global ischemia followed by reperfusion

T2 sequence (P29274 whole entry): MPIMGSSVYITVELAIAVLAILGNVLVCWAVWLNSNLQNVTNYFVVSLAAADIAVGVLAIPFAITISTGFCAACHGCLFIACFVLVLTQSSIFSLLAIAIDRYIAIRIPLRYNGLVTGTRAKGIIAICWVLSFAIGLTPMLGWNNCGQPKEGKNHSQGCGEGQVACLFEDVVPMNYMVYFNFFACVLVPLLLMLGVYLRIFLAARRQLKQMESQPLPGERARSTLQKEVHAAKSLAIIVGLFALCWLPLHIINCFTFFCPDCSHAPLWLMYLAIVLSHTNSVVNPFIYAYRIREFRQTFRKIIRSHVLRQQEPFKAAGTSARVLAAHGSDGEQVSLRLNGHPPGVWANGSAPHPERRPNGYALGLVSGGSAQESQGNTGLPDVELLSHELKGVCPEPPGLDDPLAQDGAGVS
Sequence of rat A1 receptors (P25099 whole entry, the tested form may be a part): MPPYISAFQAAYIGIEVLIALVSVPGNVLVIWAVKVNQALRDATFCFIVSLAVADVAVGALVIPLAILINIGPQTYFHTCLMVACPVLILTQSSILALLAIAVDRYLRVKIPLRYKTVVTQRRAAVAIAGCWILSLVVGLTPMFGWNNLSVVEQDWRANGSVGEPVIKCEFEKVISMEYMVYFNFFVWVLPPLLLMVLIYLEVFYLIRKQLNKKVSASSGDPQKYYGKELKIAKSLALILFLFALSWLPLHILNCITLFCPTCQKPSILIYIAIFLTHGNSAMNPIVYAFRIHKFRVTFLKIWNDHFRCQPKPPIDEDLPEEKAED

Q: Which Ki (human A1 receptors [1]; [15]) does the source give for `Cc1ccccc1CNc1ncnc2c1ncn2C1OC(CO)C(O)C1O` (centres unmarked) [Compound 11] here?
A: 39 ± 8 nM

Q: And the Ki (human A2A receptors [2])?
A: 760 ± 110 nM

Q: And the Ki [3]?
A: 38 ± 15 nM

Q: What about the “% Activation (hA3AR) at 10 μM” value [4] of the same compound?
A: 100 ± 3%

Q: And the Ki [5]?
A: 47 ± 11 nM

Q: What does the source list for `CNC(=O)C12CC1C(n1cnc3c(NCc4cccc(Br)c4)nc(Cl)nc31)C(O)C2O` (stereo not drawn) [Compound 17, (1′S,2′R,3′S,4′S,5′S)-4′-[6-(3-Bromobenzylamino)-2-chloro-purin-9-yl]-2′,3′-dihydroxy-bicyclo[3.1.0]hexane-1′-carboxylic acid methyl amide]?
A: % Activation (hA2BAR) at 10 μM [6]: 38%; Ki (human A1 receptors [7]): 270 ± 70 nM; % Activation (hA3AR) at 10 μM [8]: 100 ± 11%; Ki (human A2A receptors [9]): 1300 ± 100 nM; Ki [10]: 0.76 ± 0.08 nM; Ki [11]: 0.38 nM

Q: For `CNC(=O)[C@@]12C[C@@H]1[C@@H](n1cnc3c(NCC(c4ccccc4)c4ccccc4)nc(Cl)nc31)[C@H](O)[C@@H]2O` [Compound 34], which “% Activation (hA2BAR) at 10 μM” value [6] is on record?
A: 46%

Q: What about the Ki (human A1 receptors [7]) of the same compound?
A: 1300 ± 100 nM

Q: What about the “% Activation (hA3AR) at 10 μM” value [8] of the same compound?
A: 107 ± 9%

Q: And the Ki (human A2A receptors [9])?
A: 1600 ± 100 nM

Q: And the Ki [10]?
A: 10 ± 4 nM

Q: What about the “affinity at the human A3 adenosine receptor (in words)” value ([11]; 2-chloro, 5′-N-methylamide substituted compounds) of the same compound?
A: subnanomolar

Q: And the Ki [11]?
A: 0.69 ± 0.02 nM

Q: What about the “Selectivity for the human A3 adenosine receptor in comparison to the A1 adenosine receptor” value ([11]; ratio of Ki hA1 / hA3) of the same compound?
A: 1900 fold

Q: And the “agonist efficacy at the A3 adenosine receptor (inhibition of forskolin-stimulated adenylate cyclase)” value ([12]; concentration of 10 μM)?
A: agonist

Q: Which results are given for `OCC1OC(n2cnc3c(NCc4cccnc4)ncnc32)C(O)C1O` (centres unmarked) [Compound 12]?
A: Ki (human A1 receptors [1]; data from literature (footnotes c, d, f, g); read-out: Ki(hA1AR); cited from earlier work): 42 ± 4 nM; Ki (human A2A receptors [2]): 2300 ± 120 nM; Ki [3]: 290 ± 70 nM; % Activation (hA3AR) at 10 μM [4]: 100 ± 6%; Ki [5]: 4.5 ± 1.1 nM

Q: Which Ki (human A1 receptors [1]; [15]) does the source give for `CNc1ncnc2c1ncn2C1OC(CO)C(O)C1O` (centres unmarked) [Compound 6] here?
A: 6000 ± 2000 nM

Q: What about the “% Activation (hA2BAR) at 10 μM” value [13] of the same compound?
A: 16%

Q: What about the “% displ. at 10 μM (hA2AAR)” value (human A2A receptors [2]) of the same compound?
A: 17%

Q: And the Ki [3]?
A: 6400 ± 1600 nM

Q: What about the Ki [5] of the same compound?
A: 9.3 ± 0.4 nM

Q: What does the source list for `CNC(=O)C12CC1C(n1cnc3c(NC4CCCC4)nc(Cl)nc31)C(O)C2O` (stereo not drawn) [Compound 104, (1′S,2′R,3′S,4′S,5′S) -4′-[6-(cyclopentylamino)-2-chloro-purin-9-yl]-2′,3′-dihydroxy-bicyclo[3.1.0]hexane-1′-carboxylic acid methyl amide]?
A: Ki (rat A1 receptors): 17.4 nM; EC50 [12]: 2.8 nM; % Activation (hA3AR) at 10 μM ([12]; 10 μM, relative to 10 μM Cl-IB-MECA): 101 ± 10%; agonist character at human A3 (concentration response curves, cAMP) ([12]; intact transfected CHO cells): full agonist; recovery of left ventricular developed pressure, +dP/dt, −dP/dt and heart rate (in words) (intact mouse heart): improved significantly; Recovery of +dP/dt (intact mouse heart; [16]): 21.1 ± 4.9 % of baseline prior to ischemia/reperfusion; Recovery of HR (intact mouse heart; [16]): 93.8 ± 19.3 % of baseline prior to ischemia/reperfusion; Recovery of LVDP (intact mouse heart; [16]): 26.0 ± 4.8 % of baseline prior to ischemia/reperfusion; Recovery of −dP/dt (intact mouse heart; [16]): 24.6 ± 7 % of baseline prior to ischemia/reperfusion; % necrosis (infarct size, TTC staining) (intact mouse heart; n = 6, area of necrosis normalized to total ventricular area): 15±7% and 15.0 ± 6.9%; anti-ischemic cardioprotective effect (in words) (intact mouse heart; perfused until induction of ischemia): potent anti-ischemic cardioprotective effect; infarct size (in words) (intact mouse heart; computer morphometry after TTC staining): significantly reduced; EC50 [14]: 8.2 nM; agonist character at human A1 (concentration response curves, cAMP) ([14]; intact transfected CHO cells): full agonist

Q: With `CNc1nc(N)nc2c1ncn2C1OC(CO)C(O)C1O` (centres unmarked) [Compound 7] as the compound, how does the Ki (human A1 receptors [1]; [15]) read?
A: 480 ± 20 nM

Q: What about the “% Activation (hA2BAR) at 10 μM” value [13] of the same compound?
A: 11%

Q: What about the “% displ. at 10 μM (hA2AAR)” value (human A2A receptors [2]) of the same compound?
A: 15%

Q: And the Ki [3]?
A: > 10000 nM

Q: What about the “% Activation (hA3AR) at 10 μM” value [4] of the same compound?
A: 98 ± 3%

Q: And the Ki [5]?
A: 39 ± 2 nM
